By Kd is commonly meant the free concentration of one partner at which half of the binding sites on the other are occupied at equilibrium, for simple one-to-one binding.

Our source for the Kd values is article PMC12323131, “CSRP2 promotes the glioblastoma mesenchymal phenotype via p130Cas-mediated NF-κB and MAPK pathways” (Journal of Experimental & Clinical Cancer Research : CR, 2025).

For this experiment, the target named is T1, CSRP2 recombinant protein (Homo sapiens, UniProt Q16527).
T1 construct: labelled with RED-NHS dye
T1 sequence (Q16527 1-193): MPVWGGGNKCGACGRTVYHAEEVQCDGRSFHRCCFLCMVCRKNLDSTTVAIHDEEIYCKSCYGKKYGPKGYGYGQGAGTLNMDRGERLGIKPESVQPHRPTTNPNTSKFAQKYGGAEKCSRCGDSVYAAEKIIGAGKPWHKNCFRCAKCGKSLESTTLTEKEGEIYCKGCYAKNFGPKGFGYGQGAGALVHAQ
Nature of the experiment: microscale thermophoresis. The experiment is classed as binding.

For the compound `O=C1c2c(O)ccc(O)c2C(=O)c2c(NCCNCCO)ccc(NCCNCCO)c21` [Mitoxantrone], the Kd was determined as 370 nM.
